Laboratory results published in PMC12195648 (Pharmaceuticals, 2025).
Like-named read-outs stand apart in the source and are kept apart here.

Legend:
[1] = target: T1, recombinant Abl1 kinase (Homo sapiens, UniProt P00519); experiment: Abl1 kinase inhibition assay (peptide substrate, [γ-33P]ATP); type: biochemical
T1 construct: made in house
Protocol: The inhibitory activity of the synthesized compounds was assessed on an in-house produced recombinant Abl1 kinase. The assay utilized 500 µM peptide […] as a substrate in the presence of 1 µM ATP + [γ-33P]ATP (0.05 µCi per reaction) and the test compound in a final volume of 10 µL of reaction buffer (60 mM HEPES-NaOH, pH 7.5, 3 mM MgCl2, 3 mM MnCl2, 3 μM Na-orthovanadate, 1.2 mM DTT, 2.5 μg/50 μL PEG20.000). The reaction was terminated by adding 5 µL of 3% aq. H3PO4. Aliquots were spotted onto P-81 phosphocellulose (Whatman, Maidstone, UK), washed three times with 0.5% aq. H3PO4, and air-dried. Peptide phosphorylation was quantified through digital autoradiography (FLA-7000; Fujifilm, Tokyo, Japan).

[2] = system: K562 cells; experiment: Cytotoxicity, resazurin assay, K562; type: cell-based, human; settings: for SI (K562): GI50 HEK-293T / GI50 K562; for GI50: Homo sapiens, K562, 72 h, resazurin, GI50 ± SD
Protocol: (§1) The development of the KCL22 subclone B8 (T315I, 100%) has been previously detailed. All cell lines were maintained in a humidified incubator at 37 °C and 5% CO2, following the manufacturer’s instructions, in the appropriate medium supplemented with 10% foetal bovine serum, penicillin (100 IU/mL), streptomycin (100 µg/mL), and glutamine (4 mM).
(§2) Cytotoxicity was assessed utilizing resazurin, an indicator dyes that measures oxidation-reduction reactions in the mitochondria of living cells. Cells were seeded into 96-well plates and treated with the compounds for 72 h (six different doses of each compound, in triplicate).

[3] = system: KCL22 cells; experiment: Cytotoxicity, resazurin assay, KCL22; type: cell-based, human; settings: for SI (KCL22): GI50 HEK-293T / GI50 KCL22; for GI50: Homo sapiens, KCL-22, 72 h, resazurin, GI50 ± SD
Protocol: as §1, §2

[4] = system: KCL22-B8 cells; experiment: Cytotoxicity, resazurin assay, KCL22-B8 (Bcr-Abl T315I); type: cell-based, human; settings: for SI (KCL22-B8): GI50 HEK-293T / GI50 KCL22-B8; for GI50: 72 h, resazurin, GI50 ± SD, Bcr-Abl T315I, imatinib-resistant
Protocol: as §1, §2

[5] = system: HEK-293T cells; experiment: Cytotoxicity, resazurin assay, non-neoplastic HEK-293T; type: cell-based; settings: Homo sapiens, 72 h, GI50 ± SD
Protocol: as §1, with “The human cell line KCL22 was sourced from the German Collection of Microorganisms and Cell Cultures, while K562 and HEK-293T cells were obtained from the European Collection of Authenticated Cell Cultures. The” for “The”
Cytotoxicity was assessed utilizing resazurin, an indicator dyes that measures oxidation-reduction reactions in the mitochondria of living cells. Cells were seeded into 96-well plates and treated with the compounds for 72 h (six different doses of each compound, in triplicate). After treatment, a solution of resazurin (Merck, Prague, Czech Republic) was added for 4 h, and the fluorescence of resorufin corresponding to viable cell quantity was measured at 544 nm/590 nm (excitation/emission) using a Fluoroskan Ascent microplate reader (LabSystems, Helsinki, Finland).

[6] = system: KCL22 cells with Bcr-Abl^T315I; settings: cited from earlier work
[7] = experimental pIC50 = −logIC50 on Abl, read-out: pIC50 Exp (converted)
[8] = in vitro inhibition of Abl1 kinase, 1 µM ATP, at least three independent experiments, read-out: IC50 Abl

T1 sequence (P00519 whole entry): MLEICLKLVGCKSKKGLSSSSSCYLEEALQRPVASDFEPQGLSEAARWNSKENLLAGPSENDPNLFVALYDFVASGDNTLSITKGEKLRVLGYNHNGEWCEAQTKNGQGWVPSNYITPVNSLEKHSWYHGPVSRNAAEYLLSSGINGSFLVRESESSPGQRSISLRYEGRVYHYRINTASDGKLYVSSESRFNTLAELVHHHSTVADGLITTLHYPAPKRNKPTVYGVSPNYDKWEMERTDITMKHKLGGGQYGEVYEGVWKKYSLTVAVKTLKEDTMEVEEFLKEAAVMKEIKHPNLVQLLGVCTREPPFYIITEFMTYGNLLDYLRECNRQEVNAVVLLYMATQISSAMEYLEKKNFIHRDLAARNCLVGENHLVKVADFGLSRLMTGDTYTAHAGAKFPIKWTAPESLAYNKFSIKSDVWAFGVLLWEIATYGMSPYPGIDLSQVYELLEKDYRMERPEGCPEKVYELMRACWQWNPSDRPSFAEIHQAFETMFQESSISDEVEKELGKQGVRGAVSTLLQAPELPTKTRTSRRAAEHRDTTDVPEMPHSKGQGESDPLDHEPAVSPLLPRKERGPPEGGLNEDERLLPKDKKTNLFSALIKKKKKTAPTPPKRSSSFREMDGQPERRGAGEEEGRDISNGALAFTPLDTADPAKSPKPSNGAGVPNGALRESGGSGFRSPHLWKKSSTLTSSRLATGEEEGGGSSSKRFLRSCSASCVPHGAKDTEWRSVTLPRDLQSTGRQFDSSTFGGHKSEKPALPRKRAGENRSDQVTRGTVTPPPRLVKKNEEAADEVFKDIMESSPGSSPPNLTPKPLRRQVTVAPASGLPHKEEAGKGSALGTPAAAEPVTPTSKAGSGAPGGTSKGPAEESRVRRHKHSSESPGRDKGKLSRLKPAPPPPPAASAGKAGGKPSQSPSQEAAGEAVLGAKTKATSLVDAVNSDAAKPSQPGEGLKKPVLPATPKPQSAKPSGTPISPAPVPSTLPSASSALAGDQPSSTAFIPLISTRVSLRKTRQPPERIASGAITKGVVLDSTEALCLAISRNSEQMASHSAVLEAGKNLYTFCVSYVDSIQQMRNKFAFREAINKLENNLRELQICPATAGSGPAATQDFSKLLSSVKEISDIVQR

SMILES	IC50 [1, 7]	IC50 [1, 8]	SI (K562) [2]	GI50 [2]	SI (KCL22) [3]	GI50 [3]	SI (KCL22-B8) [4]	GI50 ([4]; Homo sapiens)	GI50 [5]	fold more potent than 7b ([2]; K562 cells, GI50 ratio)	fold more potent than 7b ([3]; KCL22 cells, GI50 ratio)	GI50 [4]	GI50 [6]
OCCOCCN1CCN(c2ccc(Nc3nc(Nc4cccc(F)c4)c4ncn(CC5CC5)c4n3)cc2)CC1 [Compound 7a, 2-(2-(4-(4-((9-(Cyclopropylmethyl)-6-((3-fluorophenyl)amino)-9H-purin-2-yl)amino)phenyl)piperazin-1-yl)ethoxy)ethan-1-ol]	0.13 µM	0.13 ± 0.03 µM	5.0	1.37 ± 0.61 µM	2.9	2.38 ± 1.12 µM	0.4	17.4 ± 2.02 µM	6.85 ± 0.66 µM	–	–	–	–
N#Cc1cccc(Nc2nc(Nc3ccc(N4CCN(CCO)CC4)cc3)nc3c2ncn3CC2CC2)c1 [Compound 7b, 3-((9-(Cyclopropylmethyl)-2-((4-(4-(2-hydroxyethyl)piperazin-1-yl)phenyl)amino)-9H-purin-6-yl)amino)benzonitrile]	0.46 µM	0.46 ± 0.15 µM	3.6	4.04 ± 1.87 µM	1.1	13.1 ± 2.21 µM	0.8	17.9 ± 2.71 µM	14.8 ± 0.91 µM	–	–	–	–
N#Cc1cccc(Nc2nc(Nc3ccc(N4CCN(CCO)CC4)nc3)nc3c2ncn3CC2CC2)c1 [Compound 7c, 3-((9-(Cyclopropylmethyl)-2-((6-(4-(2-hydroxyethyl)piperazin-1-yl)pyridin-3-yl)amino)-9H-purin-6-yl)amino)benzonitrile]	0.19 µM	0.19 ± 0.05 µM	–	0.3 ± 0.11 µM	16	1.54 ± 1.02 µM	0.8	> 25 µM	> 25 µM	13 fold	approximately 8.5 fold	–	–
OCCN1CCN(c2ccc(Nc3nc(Nc4cccc(Br)c4)c4ncn(CC5CC5)c4n3)cc2)CC1 [Compound 7d, 2-(4-(4-((6-((3-Bromophenyl)amino)-9-(cyclopropylmethyl)-9H-purin-2-yl)amino)phenyl)piperazin-1-yl)ethan-1-ol]	0.21 µM	0.21 ± 0.01 µM	5.5	1.44 ± 0.91 µM	2.7	2.96 ± 0.97 µM	0.4	20.1 ± 2.35 µM	7.87 ± 1.53 µM	–	–	–	–
COC(=O)c1ccc(Nc2nc(Nc3ccc(N4CCN(CCO)CC4)cc3)nc3c2ncn3CC2CC2)cc1Cl [Compound 7e, Methyl 2-chloro-4-((9-(cyclopropylmethyl)-2-((4-(4-(2-hydroxyethyl)piperazin-1-yl)phenyl)amino)-9H-purin-6-yl)amino)benzoate]	0.42 µM	0.42 ± 0.08 µM	2.7	2.19 ± 1.42 µM	1.7	3.88 ± 1.46 µM	0.4	13.8 µM	5.98 ± 2.78 µM	–	–	15.4 ± 0.98 µM	–
OCCN1CCN(c2ccc(Nc3nc(Nc4ccc(Cl)c(C(F)(F)F)c4)c4ncn(CC5CC5)c4n3)cc2)CC1 [Compound 7f, 2-(4-(4-((6-((4-Chloro-3-(trifluoromethyl)phenyl)amino)-9-(cyclopropylmethyl)-9H-purin-2-yl)amino)phenyl)piperazin-1-yl)ethan-1-ol]	1.26 µM	1.26 ± 0.65 µM	1.1	3.56 ± 0.52 µM	0.3	12.4 ± 4.28 µM	0.3	15.4 µM	3.96 ± 0.57 µM	–	–	13.8 ± 3.05 µM	–
COc1cc(Nc2nc(Nc3ccc(N4CCN(CCO)CC4)cc3)nc3c2ncn3CC2CC2)ccc1Br [Compound 7g, 2-(4-(4-((6-((4-Bromo-3-methoxyphenyl)amino)-9-(cyclopropylmethyl)-9H-purin-2-yl)amino)phenyl)piperazin-1-yl)ethan-1-ol]	0.791 µM	0.79 ± 0.14 µM	1.8	2.34 ± 1.04 µM	0.8	5.51 ± 1.08 µM	0.3	15.4 µM	4.32 ± 1.42 µM	–	–	16.6 ± 0.92 µM	–
Cc1cn(-c2cc(NC(=O)c3ccc(C)c(Nc4nccc(-c5cccnc5)n4)c3)cc(C(F)(F)F)c2)cn1 [nilotinib]	–	–	–	–	–	–	–	–	–	–	–	–	> 20 µM
